Experimental data reported in US9957267B2, “Somatostatin modulators and uses thereof” (Crinetics Pharmaceuticals, Inc., priority 2015, dated 2018).
Read-outs that look alike come from different tables or passages of the source.

Tests used:
Type in all cases: cell-based
[1] = target: SSTR3 (UniProt P32745); assay: cAMP functional agonist assay, CHO cells expressing SSTR3; settings: CHO cells stably expressing SSTR3, cAMP
Procedure: (§1) Chinese hamster ovary (CHO) cells stably expressing one of the six human or rodent somatostatin receptor subtypes are grown to 85-100% confluence on standard tissue culture dishes in F12-Ham's growth media (Hyclone) with following additives: 10% donor calf serum (Hyclone), 200 U/mL penicillin (Hyclone), 200 μg/mL streptomycin (Hyclone), 20 mM HEPES (Hyclone), 200 μg/mL hygromycin Hyclone.
(§2) General overview: All SSTR subtypes are Gi coupled G-protein coupled receptors (GPCRs) that lead to decreases in intracellular cyclic AMP (cAMP) when activated by an agonist. Therefore, measurement of intracellular cAMP levels can be used to assess whether compounds of the invention are agonists of SSTR subtypes (John Kelly, Troy Stevens, W. Joseph Thompson, and Roland Seifert, Current Protocols in Pharmacology, 2005, 2.2.1-2.2). One example of an intracellular cAMP assay is described below.

[2] = target: T1, human somatostatin receptor subtype 2a (Homo sapiens, UniProt P30874); assay: cAMP assay for SSTR2a agonists (HTRF cAMP kit, NKH-477 stimulated); settings: CHO cells stably expressing human SSTR2a, 1.6 μM NKH-477
T1 construct: expressed in transfected cells
Procedure: as §1, §2
Four days prior to the assay, 5000 Chinese hamster ovary (CHO) cells stably expressing the human somatostatin receptor subtype 2a are plated in each well of a 96-well tissue culture plate (Nest Biotech Cell, flat bottom with low evaporation tissue culture treated; Polystyrene; Non-Pyrogenic) in F12-Ham's media (100 μL/well) supplemented with 200 μg/mL of hygromycin. Incubate at 37 C, 5% CO2, 95% humidity for four days. The cells should reach full confluence. On the day of the assay, various dilutions of the compounds of the invention are prepared in assay buffer (HRTF cAMP kit, Cisbio) in the presence of 1.6 μM NKH-477 (a water-soluble forskolin derivative) and 50 μL of the dilutions are added to the cultured cells and incubated for 20 minutes at 37° C. […] 50 μL of lysis buffer (HRTF cAMP kit, Cisbio) is added to each well and incubated at room temperature for 30 minutes, after which 150 μL assay buffer is added to each well. In a 384-well plate (Grenier, 784-080), 10 μL of assay mixture is added to 10 μL of developing mixture, containing cAMP detection and visualization antibodies are added and the assay is allowed incubate for 1-24 hours at room temperature. The intracellular cAMP concentrations are then measured using a commercially available detection kit (for example, the cAMP HTRF kit, Cisbio). The measured intracellular cAMP concentrations are plotted vs. the concentration of the compounds of the invention and the EC50 of the compounds are calculated using standard methods.

[3] = target: T2, SSTR5 (Homo sapiens, UniProt P35346); assay: cAMP functional agonist assay, CHO cells expressing SSTR5; settings: CHO cells stably expressing SSTR5, cAMP
T2 construct: expressed in transfected cells
Procedure: as §1, §2

[4] = target: T3, SSTR4 (Homo sapiens, UniProt P31391); assay: cAMP functional agonist assay, CHO cells expressing SSTR4
T3 construct: expressed in transfected cells
Procedure: as §1
(§3) General overview: All SSTR subtypes are Gi coupled G-protein coupled receptors (GPCRs) that lead to decreases in intracellular cyclic AMP (cAMP) when activated by an agonist. […] One example of an intracellular cAMP assay is described below.

[5] = target: T4, SSTR1 (Homo sapiens, UniProt P30872); assay: cAMP functional agonist assay, CHO cells expressing SSTR1
T4 construct: expressed in transfected cells
Procedure: as §1, §3

[6] = CHO cells stably expressing SSTR4, cAMP, read-out: SSTR4 EC50

T4 sequence (P30872 whole entry): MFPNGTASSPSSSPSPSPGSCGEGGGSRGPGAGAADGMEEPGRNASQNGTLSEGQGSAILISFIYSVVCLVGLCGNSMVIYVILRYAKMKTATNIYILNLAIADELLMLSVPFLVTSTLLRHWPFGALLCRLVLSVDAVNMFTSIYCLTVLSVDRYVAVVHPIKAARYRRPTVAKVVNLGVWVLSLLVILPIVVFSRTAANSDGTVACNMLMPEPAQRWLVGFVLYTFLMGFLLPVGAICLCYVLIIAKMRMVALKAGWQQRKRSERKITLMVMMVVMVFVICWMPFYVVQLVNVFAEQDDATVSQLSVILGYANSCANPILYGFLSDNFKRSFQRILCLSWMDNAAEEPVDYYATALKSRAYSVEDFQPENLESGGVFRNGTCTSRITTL
T3 sequence (P31391 whole entry): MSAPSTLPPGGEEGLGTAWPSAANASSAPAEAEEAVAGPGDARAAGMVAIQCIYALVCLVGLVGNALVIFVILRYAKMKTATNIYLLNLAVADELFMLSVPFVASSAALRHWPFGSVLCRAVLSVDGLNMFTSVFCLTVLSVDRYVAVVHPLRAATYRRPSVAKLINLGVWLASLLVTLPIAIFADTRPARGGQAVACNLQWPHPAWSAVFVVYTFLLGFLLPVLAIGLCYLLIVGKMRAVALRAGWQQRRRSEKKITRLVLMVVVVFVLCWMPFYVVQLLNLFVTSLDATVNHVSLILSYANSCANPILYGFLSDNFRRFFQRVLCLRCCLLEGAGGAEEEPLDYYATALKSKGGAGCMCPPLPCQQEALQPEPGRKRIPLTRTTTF
T1 sequence (P30874 whole entry): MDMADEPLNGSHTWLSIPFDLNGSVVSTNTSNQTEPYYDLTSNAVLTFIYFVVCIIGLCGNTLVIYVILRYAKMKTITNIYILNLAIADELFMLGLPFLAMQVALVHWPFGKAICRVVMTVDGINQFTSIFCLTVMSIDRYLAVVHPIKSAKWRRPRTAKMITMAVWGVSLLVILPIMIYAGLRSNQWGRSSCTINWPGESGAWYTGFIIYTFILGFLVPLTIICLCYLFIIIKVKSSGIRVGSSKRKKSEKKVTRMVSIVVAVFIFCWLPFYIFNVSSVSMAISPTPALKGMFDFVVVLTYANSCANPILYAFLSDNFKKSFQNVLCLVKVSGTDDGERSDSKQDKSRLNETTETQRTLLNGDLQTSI
T2 sequence (P35346 whole entry): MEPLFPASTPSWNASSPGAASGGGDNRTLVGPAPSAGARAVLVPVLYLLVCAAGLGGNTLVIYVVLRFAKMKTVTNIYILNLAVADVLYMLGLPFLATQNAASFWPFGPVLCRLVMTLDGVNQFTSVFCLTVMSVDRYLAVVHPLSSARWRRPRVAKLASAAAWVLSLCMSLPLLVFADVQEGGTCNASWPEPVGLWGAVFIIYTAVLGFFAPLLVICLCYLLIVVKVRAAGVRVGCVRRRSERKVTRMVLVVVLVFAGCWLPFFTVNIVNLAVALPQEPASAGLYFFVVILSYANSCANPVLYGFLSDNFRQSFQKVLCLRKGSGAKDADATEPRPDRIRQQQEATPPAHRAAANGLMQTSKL
SSTR3, sequence (P32745 whole entry): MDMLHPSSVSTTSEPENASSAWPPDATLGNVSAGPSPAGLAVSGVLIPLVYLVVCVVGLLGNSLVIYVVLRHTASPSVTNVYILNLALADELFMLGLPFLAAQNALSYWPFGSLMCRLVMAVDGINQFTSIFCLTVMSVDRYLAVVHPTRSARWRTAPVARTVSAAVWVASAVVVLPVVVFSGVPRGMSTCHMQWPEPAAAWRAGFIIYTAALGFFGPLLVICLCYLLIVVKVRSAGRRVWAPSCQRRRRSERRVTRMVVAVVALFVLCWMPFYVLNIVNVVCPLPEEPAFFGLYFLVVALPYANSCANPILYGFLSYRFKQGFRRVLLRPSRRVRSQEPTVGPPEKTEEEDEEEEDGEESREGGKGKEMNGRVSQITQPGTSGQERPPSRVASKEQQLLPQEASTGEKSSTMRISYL

EC50 [1] | EC50 [2] | EC50 [3] | EC50 [4, 6] | EC50 [5] | EC50 [4] | SMILES
100 to 10000 nM | 100 to 10000 nM | > 10000 nM | < 100 nM | – | – | Cc1ccccc1-c1cnc2ncn(-c3cccc(O)c3)c(=O)c2c1CN(C)CC1CCCCN1 (stereo not drawn) [Compound A-20, 3-(3-hydroxyphenyl)-5-{[methyl(piperidin-2-ylmethyl)amino]methyl}-6-(2-methylphenyl)-3H,4H-pyrido[2,3-d]pyrimidin-4-one]
100 to 10000 nM | 100 to 10000 nM | > 10000 nM | < 100 nM | – | – | Cc1cc(C)cc(-c2cnc3ncn(-c4cccc(O)c4)c(=O)c3c2CN(CCN)Cc2ccccc2)c1 [Compound A-5, 5-{[(2-aminoethyl)(benzyl)amino]methyl}-6-(3,5-dimethylphenyl)-3-(3-hydroxyphenyl)-3H,4H-pyrido[2,3-d]pyrimidin-4-one]
100 to 10000 nM | < 100 nM | – | < 100 nM | – | – | Cc1cc(Cl)cc(-c2cnc3ncn(-c4cccc(C(N)=O)c4)c(=O)c3c2CN(C)C[C@@H]2CCCN2)c1 [Compound A-31, 3-[6-(3-chloro-5-methylphenyl)-5-({methyl[(2S)-pyrrolidin-2-ylmethyl]amino}methyl)-4-oxo-3H,4H-pyrido[2,3-d]pyrimidin-3-yl]benzamide]
< 100 nM | < 100 nM | – | < 100 nM | – | – | COc1cccc(-c2cnc3ncn(-c4cccc(O)c4)c(=O)c3c2CN(C)CC2CCCCN2)c1 (stereo not drawn) [Compound A-23, 3-(3-hydroxyphenyl)-6-(3-methoxyphenyl)-5-{[methyl(piperidin-2-ylmethyl)amino]methyl}-3H,4H-pyrido[2,3-d]pyrimidin-4-one]
100 to 10000 nM | – | > 10000 nM | – | 100 to 10000 nM | < 100 nM | Cc1cc(F)cc(-c2cnc3ncn(-c4cccc(O)c4)c(=O)c3c2CN(C)C[C@@H]2CCCN2)c1 [Compound A-36, 6-(3-fluoro-5-methylphenyl)-3-(3-hydroxyphenyl)-5-({methyl[(2S)-pyrrolidin-2-ylmethyl]amino}methyl)-3H,4H-pyrido[2,3-d]pyrimidin-4-one]
< 100 nM | < 100 nM | – | < 100 nM | – | – | CN(Cc1c(-c2cccc3ccccc23)cnc2ncn(-c3cccc(O)c3)c(=O)c12)CC1CCCCN1 (stereo not drawn) [Compound A-69, 3-(3-hydroxy-phenyl)-5-[(methyl-piperidin-2-ylmethyl-amino)-methyl]-6-naphthalen-1-yl-3H-pyrido[2,3-d]pyrimidin-4-one]
100 to 10000 nM | – | > 10000 nM | – | 100 to 10000 nM | < 100 nM | Cc1cc(C)cc(-c2cnc3ncn(-c4cccc(C#N)c4)c(=O)c3c2CN(C)C[C@@H]2CCCN2)c1 [Compound A-42, 3-[6-(3,5-dimethylphenyl)-5-({methyl[(2S)-pyrrolidin-2-ylmethyl]amino}methyl)-4-oxo-3H,4H-pyrido[2,3-d]pyrimidin-3-yl]benzonitrile]
100 to 10000 nM | – | > 10000 nM | – | > 10000 nM | < 100 nM | Cc1cc(C)cc(-c2cnc3ncn(-c4cccc(C(N)=O)c4)c(=O)c3c2CN(C)C[C@@H]2CCCN2)c1 [Compound A-39, 3-[6-(3,5-dimethylphenyl)-5-({methyl[(2S)-pyrrolidin-2-ylmethyl]amino}methyl)-4-oxo-3H,4H-pyrido[2,3-d]pyrimidin-3-yl]benzamide]
– | 100 to 10000 nM | > 10000 nM | 100 to 10000 nM | – | – | Cc1cc(C)cc(-c2cnc3ncn(-c4cccc(O)c4)c(=O)c3c2CN(C)CCNCc2ccccc2)c1 [Compound A-6, 5-({[2-(benzylamino)ethyl](methyl)amino}methyl)-6-(3,5-dimethylphenyl)-3-(3-hydroxyphenyl)-3H,4H-pyrido[2,3-d]pyrimidin-4-one]
< 100 nM | – | > 10000 nM | – | > 10000 nM | < 100 nM | Cc1cc(C)cc(-c2cnc3ncn(-c4cccc(O)c4)c(=O)c3c2CN(C)C[C@H]2CCCCN2)c1 [Compound A-14, 6-(3,5-dimethylphenyl)-3-(3-hydroxyphenyl)-5-({methyl[(2R)-piperidin-2-ylmethyl]amino}methyl)-3H,4H-pyrido[2,3-d]pyrimidin-4-one]
– | 100 to 10000 nM | – | < 100 nM | – | – | CC(C)c1cccc(-c2cnc3ncn(-c4cccc(O)c4)c(=O)c3c2CN(C)CC2CCCCN2)c1 (stereo not drawn) [Compound A-22, 3-(3-hydroxyphenyl)-5-{[methyl(piperidin-2-ylmethyl)amino]methyl}-6-[3-(propan-2-yl)phenyl]-3H,4H-pyrido[2,3-d]pyrimidin-4-one]
100 to 10000 nM | < 100 nM | – | < 100 nM | – | – | CCN(CCN)Cc1c(-c2cc(C)cc(Cl)c2)cnc2nc(C)n(-c3cc(O)cc(F)c3)c(=O)c12 [Compound A-67, 5-{[(2-aminoethyl)(ethyl)amino]methyl}-6-(3-chloro-5-methylphenyl)-3-(3-fluoro-5-hydroxyphenyl)-2-methyl-3H,4H-pyrido[2,3-d]pyrimidin-4-one]
< 100 nM | – | > 10000 nM | – | 100 to 10000 nM | < 100 nM | Cc1cc(C)cc(-c2cnc3ncn(-c4cccc(O)c4)c(=O)c3c2CN(C)CC2CCCCN2)c1 (stereo not drawn) [Compound A-13, 6-(3,5-dimethylphenyl)-3-(3-hydroxyphenyl)-5-{[methyl(piperidin-2-ylmethyl)amino]methyl}-3H,4H-pyrido[2,3-d]pyrimidin-4-one]
100 to 10000 nM | 100 to 10000 nM | – | < 100 nM | – | – | Cc1cc(C)cc(-c2cnc3ncn(-c4cc(F)cc(C#N)c4)c(=O)c3c2CN(C)C[C@@H]2CCCN2)c1 [Compound A-46, 3-[6-(3,5-dimethylphenyl)-5-({methyl[(2S)-pyrrolidin-2-ylmethyl]amino}methyl)-4-oxo-3H,4H-pyrido[2,3-d]pyrimidin-3-yl]-5-fluorobenzonitrile]
< 100 nM | – | > 10000 nM | – | 100 to 10000 nM | < 100 nM | Cc1cc(C)cc(-c2cnc3ncn(-c4cc(C)cc(O)c4)c(=O)c3c2CN(C)C[C@@H]2CCCN2)c1 [Compound A-44, 6-(3,5-dimethylphenyl)-3-(3-hydroxy-5-methylphenyl)-5-({methyl[(2S)-pyrrolidin-2-ylmethyl]amino}methyl)-3H,4H-pyrido[2,3-d]pyrimidin-4-one]
< 100 nM | – | 100 to 10000 nM | – | 100 to 10000 nM | < 100 nM | Cc1cc(C)cc(-c2cnc3ncn(-c4cccc(O)c4)c(=O)c3c2CN(C)C[C@@H]2CCCCN2)c1 [Compound A-15, 6-(3,5-dimethylphenyl)-3-(3-hydroxyphenyl)-5-({methyl[(2S)-piperidin-2-ylmethyl]amino}methyl)-3H,4H-pyrido[2,3-d]pyrimidin-4-one]
< 100 nM | – | 100 to 10000 nM | – | 100 to 10000 nM | < 100 nM | CN(Cc1c(-c2cc(F)cc(Cl)c2)cnc2ncn(-c3cccc(O)c3)c(=O)c12)C[C@@H]1CCCN1 [Compound A-35, 6-(3-chloro-5-fluorophenyl)-3-(3-hydroxyphenyl)-5-({methyl[(2S)-pyrrolidin-2-ylmethyl]amino}methyl)-3H,4H-pyrido[2,3-d]pyrimidin-4-one]
< 100 nM | < 100 nM | – | < 100 nM | – | – | Cc1cc(Cl)cc(-c2cnc3ncn(-c4cc(O)cc(C#N)c4)c(=O)c3c2CN(C)C[C@@H]2CCCN2)c1 [Compound A-71, 6-(3-methyl-5-chlorophenyl)-3-(3-cyano-5-hydroxyphenyl)-5-({methyl[(2S)-pyrrolidin-2-ylmethyl]amino}methyl)-3H,4H-pyrido[2,3-d]pyrimidin-4-one]
